In assay [1] the target is T1, L-lactate dehydrogenase A chain (Homo sapiens, UniProt P00338). Briefly: Inhibition of human LDHA assessed as conversion of pyruvate to lactate measuring disappearance of NADH after 10 mins by fluorescence assay.
Assay [2] relates to MG-63. Briefly: Cytotoxicity of human MG63 cells assessed as cell growth inhibition after 72 hrs by MTT assay. The assay is classed as functional, cell-based. (Formazan colour is commonly taken as a measure of viable cells.)
Assay [3] deals with MG-63. Briefly: Induction of apoptosis in human MG63 cells assessed as necrotic cells at 2 uM after 12 hrs by Annexin V-FITC/propidium iodide staining based flow cytometry (reference value: 0.5 %). Type of assay: functional.
The subject of assay [4] is MG-63. Briefly: Induction of apoptosis in human MG63 cells assessed as viable cells at 10 uM after 24 hrs by Annexin V-FITC/propidium iodide staining based flow cytometry (reference value: 95.8 %). The conditions noted are these: MG-63, 24 h, read-out: Activity. Type of assay: functional. (In general: A flow cytometer gives signals particle by particle.)
Assay [5] deals with MG-63. Kind of assay: Induction of apoptosis in human MG63 cells assessed as viable cells at 10 uM after 12 hrs by Annexin V-FITC/propidium iodide staining based flow cytometry (reference value: 95.8 %). Type of assay: functional. Particulars: MG-63, 12 h, read-out: Activity.
The test system of assay [6] is MG-63. Kind of assay: Induction of apoptosis in human MG63 cells assessed as late apoptotic cells at 5 uM after 12 hrs by Annexin V-FITC/propidium iodide staining based flow cytometry (reference value: 3.2 %). The assay is classed as functional.
Assay [7] has as its system MG-63. Kind of assay: Induction of apoptosis in human MG63 cells at 10 uM by Annexin V-FITC/propidium iodide staining based flow cytometry. Type of assay: functional, cell-based. Particulars: TDE = time-dependent effect.
For assay [8], the system named is MG-63. Briefly: Induction of apoptosis in human MG63 cells assessed as early apoptotic cells at 5 uM after 12 hrs by Annexin V-FITC/propidium iodide staining based flow cytometry (reference value: 0.4 %). Type of assay: functional.
The test system of assay [9] is MG-63. Briefly: Induction of apoptosis in human MG63 cells assessed as late apoptotic cells at 10 uM after 6 hrs by Annexin V-FITC/propidium iodide staining based flow cytometry (reference value: 3.2 %). Type of assay: functional.
The test system of assay [10] is MG-63. Briefly: Induction of apoptosis in human MG63 cells assessed as viable cells at 2 uM after 12 hrs by Annexin V-FITC/propidium iodide staining based flow cytometry (reference value: 95.8 %). Type of assay: functional. Particulars: MG-63, 12 h, read-out: Activity.
The test system of assay [11] is MG-63. Kind of assay: Induction of apoptosis in human MG63 cells assessed as late apoptotic cells at 10 uM after 12 hrs by Annexin V-FITC/propidium iodide staining based flow cytometry (reference value: 3.2 %). Type of assay: functional.
In assay [12] the test system is MG-63. Kind of assay: Induction of apoptosis in human MG63 cells assessed as early apoptotic cells at 10 uM after 24 hrs by Annexin V-FITC/propidium iodide staining based flow cytometry (reference value: 0.4 %). The assay is classed as functional.
The subject of assay [13] is MG-63. Kind of assay: Induction of apoptosis in human MG63 cells after 12 hrs by Annexin V-FITC/propidium iodide staining based flow cytometry. The assay is classed as functional, cell-based.
In assay [14] the test system is MG-63. Kind of assay: Induction of apoptosis in human MG63 cells assessed as necrotic cells at 5 uM after 12 hrs by Annexin V-FITC/propidium iodide staining based flow cytometry (reference value: 0.5 %). Type of assay: functional.
Assay [15] concerns the target T1, L-lactate dehydrogenase A chain. Kind of assay: Inhibition of human LDHA in MG63 cells assessed as reduction in lactate formation after 12 hrs. Type of assay: cell-based.
For assay [16], the system named is MG-63. Kind of assay: Induction of apoptosis in human MG63 cells assessed as early apoptotic cells at 10 uM after 12 hrs by Annexin V-FITC/propidium iodide staining based flow cytometry (reference value: 0.4 %). The assay is classed as functional.
Assay [17] relates to MG-63. Kind of assay: Induction of apoptosis in human MG63 cells assessed as viable cells at 10 uM after 6 hrs by Annexin V-FITC/propidium iodide staining based flow cytometry (reference value: 95.8 %). The assay is classed as functional. Particulars: MG-63, 6 h, read-out: Activity.
The subject of assay [18] is MG-63. Kind of assay: Induction of apoptosis in human MG63 cells assessed as necrotic cells at 10 uM after 24 hrs by Annexin V-FITC/propidium iodide staining based flow cytometry (reference value: 0.5 %). The assay is classed as functional.
Assay [19] relates to MG-63. Kind of assay: Induction of apoptosis in human MG63 cells assessed as necrotic cells at 10 uM after 6 hrs by Annexin V-FITC/propidium iodide staining based flow cytometry (reference value: 0.5 %). Type of assay: functional.
Assay [20] relates to MG-63. Briefly: Induction of apoptosis in human MG63 cells assessed as early apoptotic cells at 10 uM after 6 hrs by Annexin V-FITC/propidium iodide staining based flow cytometry (reference value: 0.4 %). The assay is classed as functional.
In assay [21] the test system is MG-63. Briefly: Induction of apoptosis in human MG63 cells assessed as necrotic cells at 10 uM after 12 hrs by Annexin V-FITC/propidium iodide staining based flow cytometry (reference value: 0.5 %). Type of assay: functional.
Assay [22] relates to MG-63. Briefly: Induction of apoptosis in human MG63 cells assessed as viable cells at 5 uM after 12 hrs by Annexin V-FITC/propidium iodide staining based flow cytometry (reference value: 95.8 %). The conditions noted are these: MG-63, 12 h, read-out: Activity. The assay is classed as functional.
The test system of assay [23] is MG-63. Kind of assay: Induction of apoptosis in human MG63 cells assessed as early apoptotic cells at 2 uM after 12 hrs by Annexin V-FITC/propidium iodide staining based flow cytometry (reference value: 0.4 %). The assay is classed as functional.
Assay [24] concerns MG-63. Briefly: Induction of apoptosis in human MG63 cells assessed as late apoptotic cells at 10 uM after 24 hrs by Annexin V-FITC/propidium iodide staining based flow cytometry (reference value: 3.2 %). The assay is classed as functional.
The test system of assay [25] is MG-63. Briefly: Induction of apoptosis in human MG63 cells assessed as late apoptotic cells at 2 uM after 12 hrs by Annexin V-FITC/propidium iodide staining based flow cytometry (reference value: 3.2 %). The assay is classed as functional.
In assay [26] the target is T1, L-lactate dehydrogenase A chain. Briefly: Inhibition of human LDHA in MG63 cells assessed as reduction in lactate formation at 20 uM after 12 hrs. Type of assay: cell-based.
[27] abbreviates: Homo sapiens, MG-63, 72 h, read-out: EC50.

The source made the active and inactive calls. The calls are words filed in the database; no cut-off is given here.

In general, IC50 refers to the midpoint of a concentration-inhibition curve. As a reminder, the EC50 is the concentration that produces a half-maximal response. For `COc1ccc(-c2cc(-c3ccc(OC)cc3)c(C#N)c(SCC(=O)Nc3ccc(C)c(C)c3)n2)cc1`, the IC50 in [1] is over 100 µM. The EC50 result in [2] (mg-63) is “Not Active”.

On to `COc1ccc(-c2cc(-c3ccc(OC)cc3)c(C#N)c(SCC(=O)Nc3c(C)cccc3C)n2)cc1`, for which, in assay [1], the IC50 worked out at 22.5 µM. For the same molecule, the EC50 in assay [2] (setting [27]) is 35.4 µM.

With `CCc1ccccc1NC(=O)CSc1nc(-c2ccc(OC)cc2)cc(-c2ccc(OC)cc2)c1C#N`, the Activity in assay [3] is 0.4%; in [6] it was 10.3%; in [7] it was “Tde”; in assay [8] it was 0.7%; in assay [9] it was 8.1%; in assay [11], 14.1%. The Activity in assay [12] is 3.1%; in assay [13], “Dose-dependent effect”; in assay [14], 0.8%; in [16] it was 2.8%; in assay [18], 0.3%; in assay [19], 0.8%. In addition, the Activity in assay [20] is 5%; in assay [21], 0.4%; in assay [23], 2%; in assay [24], 23.5%; in assay [25] it was 6.5%. For the same molecule, the viability at 10 µM in assay [4] is 73.1%; in assay [5], 82.7%; in [17], 86.1%. In addition, in assay [10], the viability at 2 µM stood at 91%. Moreover, the inhibition result in assay [15] is “Dose-dependent effect”. Moreover, the viability at 5 µM in [22] was found to be 88.2%. Besides, in [1], the IC50 turned out to be 1.24 µM. Further, the EC50 in [2] (setting [27]) was determined as 0.98 µM.

In the case of `COc1ncc(-c2ccc3c(Nc4cccc(C(=O)O)c4)c(S(N)(=O)=O)cnc3c2)c(OC)n1`, the inhibition entry in assay [26] is “Active”. Further, the IC50 in assay [1] came out at 7.4 µM. Besides, in assay [2] (setting [27]), the concentration for a half-maximal effect (EC50) was found to be 28.4 µM.

With `Cc1ccc(-c2cc(-c3ccc(F)cc3)nc(SCC(=O)Nc3cccc(C)c3)c2C#N)cc1`, the IC50 in [1] is 3.4 µM. For the same molecule, in assay [2] (setting [27]), the EC50 was determined as 6.72 µM.

Regarding `COc1ccc(-c2cc(-c3ccccc3)c(C#N)c(SCC(=O)Nc3cc(C)cc(C)c3)n2)cc1`, the IC50 in assay [1] came out at 6.59 µM. For the same molecule, the EC50 in [2] (setting [27]) came to 5.78 µM.
